PubChem BioAssay AID248 (DTP/NCI, 2004)
Values joined by “and” are separate entries in the source; they are usually repeats but may differ in a detail not shown here. Equal values may be shown once. Toxic doses and inconclusive results are not listed. Cut-off read from the data, not from the text of the source: active = T/C of 150% or more; inactive = T/C below 125%.

System: L1210 leukemia ip in BDF1 mice, survival T/C
Experiment: NCI In Vivo Anticancer Drug Screen. Data for tumor model L1210 Leukemia (intraperitoneal) in B6D2F1 (BDF1) mice
Details: higher = longer survival
How it was run: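 Antitumor effect is assessed in tumor-bearing animals. Survival in the compound arm is compared with a vehicle-dosed control arm and expressed as their quotient.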

[1] = endpoint: mean survival time, dose: 100.0 mg/kg/injection, schedule: Q01DX001 (ip), vehicle: carboxymethylcellulose (CMC)
[2] = endpoint: mean survival time, dose: 100.0 mg/kg/injection, schedule: Q01DX009 (ip), vehicle: Klucel (hydroxypropylcellulose) (HPC)
[3] = endpoint: mean survival time, dose: 100.0 mg/kg/injection, schedule: Q04DX002 (ip), vehicle: Klucel (hydroxypropylcellulose) (HPC)
[4] = endpoint: mean survival time, dose: 100.0 mg/kg/injection, schedule: Q04DX003 (ip), vehicle: saline with Tween-80
[5] = endpoint: mean survival time, dose: 200.0 mg/kg/injection, schedule: Q04DX003 (ip), vehicle: saline with Tween-80
[6] = endpoint: mean survival time, dose: 400.0 mg/kg/injection, schedule: Q04DX003 (ip), vehicle: saline with Tween-80

Measured: T/C

Nc1[nH]c(=O)ncc1F
inactive: [1] 97 % of control | endpoint: mean survival time, dose: 100.0 mg/kg/injection, schedule: Q01DX001 (ip), vehicle: saline 102 % of control | endpoint: mean survival time, dose: 100.0 mg/kg/injection, schedule: Q01DX009 (ip), vehicle: carboxymethylcellulose (CMC) 98 % of control | endpoint: mean survival time, dose: 200.0 mg/kg/injection, schedule: Q01DX001 (ip), vehicle: carboxymethylcellulose (CMC) 104 % of control | endpoint: mean survival time, dose: 200.0 mg/kg/injection, schedule: Q01DX001 (ip), vehicle: saline 102 % of control | endpoint: mean survival time, dose: 200.0 mg/kg/injection, schedule: Q01DX009 (ip), vehicle: carboxymethylcellulose (CMC) 103 % of control | endpoint: mean survival time, dose: 400.0 mg/kg/injection, schedule: Q01DX001 (ip), vehicle: saline 100 % of control | endpoint: mean survival time, dose: 400.0 mg/kg/injection, schedule: Q01DX009 (ip), vehicle: carboxymethylcellulose (CMC) 103 % of control | endpoint: mean survival time, dose: 800.0 mg/kg/injection, schedule: Q01DX001 (ip), vehicle: saline 102 % of control | endpoint: mean survival time, dose: 800.0 mg/kg/injection, schedule: Q01DX009 (ip), vehicle: carboxymethylcellulose (CMC) 104 % of control | endpoint: median survival time, dose: 31.2 mg/kg/injection, schedule: Q03HX024 (ip), vehicle: water 100 % of control | endpoint: median survival time, dose: 62.5 mg/kg/injection, schedule: Q03HX024 (ip), vehicle: water 100 % of control | endpoint: median survival time, dose: 125.0 mg/kg/injection, schedule: Q03HX024 (ip), vehicle: water 100 % of control | endpoint: median survival time, dose: 250.0 mg/kg/injection, schedule: Q03HX024 (ip), vehicle: water 105 % of control | endpoint: median survival time, dose: 250.0 mg/kg/injection, schedule: Q04DX003 (ip), vehicle: water 100 % of control | endpoint: median survival time, dose: 500.0 mg/kg/injection, schedule: Q04DX003 (ip), vehicle: water 100 % of control | endpoint: median survival time, dose: 1000.0 mg/kg/injection, schedule: Q04DX003 (ip), vehicle: water 100 % of control

CCCCCCCCCCCCCCCC[N+]1(C)CCOCC1
inactive: endpoint: mean survival time, dose: 50.0 mg/kg/injection, schedule: Q01DX009 (ip), vehicle: Klucel (hydroxypropylcellulose) (HPC) 114 % of control | [2] 93 % of control

Cc1cccc(C)c1NC(=O)NCc1ccco1
inactive: endpoint: mean survival time, dose: 25.0 mg/kg/injection, schedule: Q04DX002 (ip), vehicle: Klucel (hydroxypropylcellulose) (HPC) 99 % of control | endpoint: mean survival time, dose: 50.0 mg/kg/injection, schedule: Q04DX002 (ip), vehicle: Klucel (hydroxypropylcellulose) (HPC) 118 % of control | [2] 103 % of control | [3] 100 % of control and 103 % of control | endpoint: mean survival time, dose: 100.0 mg/kg/injection, schedule: Q04DX003 (ip), vehicle: Klucel (hydroxypropylcellulose) (HPC) 103 % of control | endpoint: mean survival time, dose: 200.0 mg/kg/injection, schedule: Q01DX009 (ip), vehicle: Klucel (hydroxypropylcellulose) (HPC) 107 % of control | endpoint: mean survival time, dose: 200.0 mg/kg/injection, schedule: Q04DX003 (ip), vehicle: Klucel (hydroxypropylcellulose) (HPC) 100 % of control | endpoint: mean survival time, dose: 400.0 mg/kg/injection, schedule: Q01DX009 (ip), vehicle: Klucel (hydroxypropylcellulose) (HPC) 102 % of control | endpoint: mean survival time, dose: 400.0 mg/kg/injection, schedule: Q04DX003 (ip), vehicle: Klucel (hydroxypropylcellulose) (HPC) 93 % of control

O=C(/C=C/c1ccccc1)Sc1ccccc1
inactive: [3] 88 % of control | endpoint: mean survival time, dose: 200.0 mg/kg/injection, schedule: Q04DX002 (ip), vehicle: Klucel (hydroxypropylcellulose) (HPC) 88 % of control | endpoint: mean survival time, dose: 400.0 mg/kg/injection, schedule: Q04DX002 (ip), vehicle: Klucel (hydroxypropylcellulose) (HPC) 107 % of control

FC(F)(F)C(F)(C1=NS1(F)C(F)(C(F)(F)F)C(F)(F)F)C(F)(F)F (configuration not stated)
inactive: endpoint: mean survival time, dose: 100.0 mg/kg/injection, schedule: Q01DX001 (ip), vehicle: acetone 101 % of control | endpoint: mean survival time, dose: 200.0 mg/kg/injection, schedule: Q01DX001 (ip), vehicle: acetone 95 % of control | endpoint: mean survival time, dose: 400.0 mg/kg/injection, schedule: Q01DX001 (ip), vehicle: acetone 100 % of control

CC(C)=CCC/C(C)=C\C1N(C)CCCN1C
inactive: endpoint: mean survival time, dose: 25.0 mg/kg/injection, schedule: Q01DX009 (ip), vehicle: saline with Tween-80 92 % of control | endpoint: mean survival time, dose: 25.0 mg/kg/injection, schedule: Q04DX003 (ip), vehicle: saline with Tween-80 98 % of control | endpoint: mean survival time, dose: 50.0 mg/kg/injection, schedule: Q01DX009 (ip), vehicle: saline with Tween-80 88 % of control | endpoint: mean survival time, dose: 50.0 mg/kg/injection, schedule: Q04DX003 (ip), vehicle: saline with Tween-80 92 % of control

N#Cc1ccccc1N=NNc1ccc(-c2nc(N)nc(N)n2)cc1
inactive: endpoint: mean survival time, dose: 100.0 mg/kg/injection, schedule: Q04DX003 (ip), vehicle: saline 94 % of control | endpoint: mean survival time, dose: 200.0 mg/kg/injection, schedule: Q04DX003 (ip), vehicle: saline 89 % of control | endpoint: mean survival time, dose: 400.0 mg/kg/injection, schedule: Q04DX003 (ip), vehicle: saline 89 % of control

CC(C)CCCC(C)C1CCC2C3CCC4CN(N=O)CCC4C3CCC12C (configuration not stated)
inactive: endpoint: mean survival time, dose: 100.0 mg/kg/injection, schedule: Q01DX001 (sc), vehicle: steriod suspending solution 102 % of control | endpoint: mean survival time, dose: 177.6 mg/kg/injection, schedule: Q01DX001 (sc), vehicle: steriod suspending solution 95 % of control | endpoint: mean survival time, dose: 200.0 mg/kg/injection, schedule: Q01DX001 (sc), vehicle: steriod suspending solution 102 % of control | endpoint: mean survival time, dose: 266.8 mg/kg/injection, schedule: Q01DX001 (sc), vehicle: steriod suspending solution 98 % of control | endpoint: mean survival time, dose: 600.0 mg/kg/injection, schedule: Q01DX001 (sc), vehicle: steriod suspending solution 98 % of control

COc1cc(CC2Cc3cccc(=O)c(O)c3C(=O)O2)cc(OC)c1OC (configuration not stated)
inactive: [4] 90 % of control | [5] 95 % of control | [6] 92 % of control

CC(C)=CCCC(C)C1CCC2C3CC=C4CC(O)CCC4(C)C3CCC12C (configuration not stated)
inactive: endpoint: mean survival time, dose: 100.0 mg/kg/injection, schedule: Q01DX001 (ip), vehicle: saline with Tween-80 91 % of control | endpoint: mean survival time, dose: 200.0 mg/kg/injection, schedule: Q01DX001 (ip), vehicle: saline with Tween-80 95 % of control | endpoint: mean survival time, dose: 400.0 mg/kg/injection, schedule: Q01DX001 (ip), vehicle: saline with Tween-80 95 % of control

O=C(NCC(F)(F)C(F)(F)C(F)(F)C(F)(F)C(F)(F)C(F)(F)C(F)(F)F)Oc1ccccc1
inactive: endpoint: mean survival time, dose: 75.0 mg/kg/injection, schedule: Q01DX001 (ip), vehicle: other 104 % of control | endpoint: mean survival time, dose: 150.0 mg/kg/injection, schedule: Q01DX001 (ip), vehicle: other 96 % of control | endpoint: mean survival time, dose: 300.0 mg/kg/injection, schedule: Q01DX001 (ip), vehicle: other 94 % of control

C/C=C(/Br)C(=O)O
inactive: endpoint: mean survival time, dose: 12.5 mg/kg/injection, schedule: Q04DX002 (ip), vehicle: saline with Tween-80 113 % of control | endpoint: mean survival time, dose: 25.0 mg/kg/injection, schedule: Q04DX002 (ip), vehicle: saline with Tween-80 105 % of control | endpoint: mean survival time, dose: 50.0 mg/kg/injection, schedule: Q04DX002 (ip), vehicle: saline with Tween-80 98 % of control | endpoint: mean survival time, dose: 100.0 mg/kg/injection, schedule: Q04DX002 (ip), vehicle: saline with Tween-80 105 % of control

Cc1ccc2c(c1)C=CC(C#N)N2C(=O)OCc1ccccc1 (configuration not stated)
inactive: [4] 95 % of control | [5] 97 % of control | [6] 94 % of control

Cc1cc(C(=O)C(C#N)=Nc2ccc(N(C)C)cc2)c(CN2C(=O)c3ccccc3C2=O)c(=O)n1C
inactive: endpoint: mean survival time, dose: 100.0 mg/kg/injection, schedule: Q01DX001 (ip), vehicle: water 92 % of control | endpoint: mean survival time, dose: 200.0 mg/kg/injection, schedule: Q01DX001 (ip), vehicle: water 94 % of control | endpoint: mean survival time, dose: 400.0 mg/kg/injection, schedule: Q01DX001 (ip), vehicle: water 94 % of control

CCCCC(N)P(=O)(O)O (configuration not stated)
inactive: endpoint: mean survival time, dose: 25.0 mg/kg/injection, schedule: Q04DX002 (ip), vehicle: saline 110 % of control | endpoint: mean survival time, dose: 50.0 mg/kg/injection, schedule: Q04DX002 (ip), vehicle: saline 105 % of control | endpoint: mean survival time, dose: 100.0 mg/kg/injection, schedule: Q04DX002 (ip), vehicle: saline 95 % of control

COc1ccc2cc(OC)ccc2c1
inactive: endpoint: mean survival time, dose: 100.0 mg/kg/injection, schedule: Q01DX001 (ip), vehicle: saline sonified 98 % of control | endpoint: mean survival time, dose: 200.0 mg/kg/injection, schedule: Q01DX001 (ip), vehicle: saline sonified 96 % of control | endpoint: mean survival time, dose: 400.0 mg/kg/injection, schedule: Q01DX001 (ip), vehicle: saline sonified 96 % of control

O=C(O)C1Cc2c([nH]c3ccccc23)C(CCCCO)N1 (configuration not stated)
inactive: [1] 96 % of control

Brc1cscc1-c1cccc2ccccc12
inactive: endpoint: mean survival time, dose: 100.0 mg/kg/injection, schedule: Q01DX009 (ip), vehicle: saline with Tween-80 86 % of control | endpoint: mean survival time, dose: 200.0 mg/kg/injection, schedule: Q01DX009 (ip), vehicle: saline with Tween-80 86 % of control

COC1/C=C/OC2(C)Oc3c(C)c(O)c4c(O)c(c(/C=N/NC5CCCCCCCCCCCCCC5)c(O)c4c3C2=O)NC(=O)/C(C)=C\C=C\C(C)C(O)C(C)C(O)C(C)C(OC(C)=O)C1C (configuration not stated)
inactive: endpoint: mean survival time, dose: 100.0 mg/kg/injection, schedule: Q01DX003 (ip), vehicle: saline with Tween-80 95 % of control | endpoint: mean survival time, dose: 200.0 mg/kg/injection, schedule: Q01DX003 (ip), vehicle: saline with Tween-80 95 % of control | endpoint: mean survival time, dose: 400.0 mg/kg/injection, schedule: Q01DX003 (ip), vehicle: saline with Tween-80 102 % of control
